# Laboratory results: the Kinase Knowledgebase extract (Sharma et al. 2016)
# Molecular target: EGFR (UniProt P00533)
# Sequence (P00533 whole entry, looked up): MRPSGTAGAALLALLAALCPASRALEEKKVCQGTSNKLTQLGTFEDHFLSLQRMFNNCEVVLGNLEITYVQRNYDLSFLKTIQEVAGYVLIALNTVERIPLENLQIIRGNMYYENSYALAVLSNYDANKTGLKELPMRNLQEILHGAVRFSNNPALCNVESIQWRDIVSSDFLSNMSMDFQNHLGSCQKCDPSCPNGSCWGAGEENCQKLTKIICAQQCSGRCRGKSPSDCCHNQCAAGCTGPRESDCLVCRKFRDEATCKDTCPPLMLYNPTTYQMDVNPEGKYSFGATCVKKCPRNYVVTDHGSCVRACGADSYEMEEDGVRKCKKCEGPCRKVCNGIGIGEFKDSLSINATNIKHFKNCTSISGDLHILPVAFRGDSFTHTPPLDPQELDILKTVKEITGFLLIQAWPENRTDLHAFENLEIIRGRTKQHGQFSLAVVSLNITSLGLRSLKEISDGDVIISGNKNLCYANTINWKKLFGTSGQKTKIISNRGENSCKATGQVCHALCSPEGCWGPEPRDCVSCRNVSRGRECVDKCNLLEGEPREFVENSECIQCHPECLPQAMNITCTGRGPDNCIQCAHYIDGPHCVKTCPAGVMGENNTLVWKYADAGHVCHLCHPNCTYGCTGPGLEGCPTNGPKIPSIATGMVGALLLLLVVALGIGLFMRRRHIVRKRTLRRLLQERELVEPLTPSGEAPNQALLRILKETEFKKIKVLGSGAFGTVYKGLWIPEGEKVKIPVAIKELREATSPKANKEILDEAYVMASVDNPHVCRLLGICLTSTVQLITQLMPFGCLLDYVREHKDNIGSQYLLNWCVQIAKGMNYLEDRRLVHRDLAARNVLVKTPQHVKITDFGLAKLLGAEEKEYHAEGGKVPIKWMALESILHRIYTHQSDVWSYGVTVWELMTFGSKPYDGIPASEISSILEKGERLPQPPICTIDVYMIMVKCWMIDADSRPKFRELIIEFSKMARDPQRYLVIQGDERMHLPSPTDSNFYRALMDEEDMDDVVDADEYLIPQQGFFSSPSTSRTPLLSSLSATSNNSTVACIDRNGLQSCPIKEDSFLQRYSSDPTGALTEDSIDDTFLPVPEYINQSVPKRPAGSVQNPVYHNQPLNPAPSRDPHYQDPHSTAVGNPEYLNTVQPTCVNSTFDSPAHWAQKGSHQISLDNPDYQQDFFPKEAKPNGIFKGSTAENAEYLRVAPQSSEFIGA
row,SMILES,IC50
1,Cc1c(NC(=O)O[C@@H]2CCN[C@@H](CO)C2)cn2ncnc(Nc3ccc4c(cnn4Cc4cccc(F)c4)c3)c12,1 to 5000 nM
2,CCc1c(NC(=O)OC[C@@H]2CCCN2)cn2ncnc(Nc3ccc4c(cnn4Cc4ccccc4)c3)c12,1 to 5000 nM
3,CCc1c(NC(=O)OC[C@@H]2CCCN2C)cn2ncnc(Nc3ccc4c(cnn4Cc4ccccc4)c3)c12,1 to 5000 nM
4,CCc1c(NC(=O)O[C@@H]2CCCNC2)cn2ncnc(Nc3ccc4c(cnn4Cc4ccccc4)c3)c12,1 to 5000 nM
5,Cc1c(NC(=O)OC[C@@H]2COCCN2)cn2ncnc(Nc3ccc4c(cnn4Cc4cccc(F)c4)c3)c12,1 to 5000 nM
6,CCc1c(NC(=O)OCCCN2CCC[C@H](O)C2)cn2ncnc(Nc3ccc4c(cnn4Cc4ccccc4)c3)c12,1 to 5000 nM
7,CCc1c(NC(=O)OC[C@@H]2COCCN2)cn2ncnc(Nc3ccc4c(cnn4Cc4cccnc4)c3)c12,1 to 5000 nM
8,CCc1c(NC(=O)OC[C@H]2C[C@H](O)CCN2)cn2ncnc(Nc3ccc4c(cnn4Cc4ccccc4)c3)c12,1 to 5000 nM
9,Cc1c(NC(=O)OC[C@H](C)N)cn2ncnc(Nc3ccc4c(cnn4Cc4cccc(F)c4)c3)c12,1 to 5000 nM
10,CCc1c(NC(=O)O[C@H]2CC[C@H](CN)CC2)cn2ncnc(Nc3ccc4c(cnn4Cc4ccccc4)c3)c12,1 to 5000 nM
11,CCc1c(NC(=O)OC[C@H]2CCNC2)cn2ncnc(Nc3ccc4c(cnn4Cc4ccccc4)c3)c12,1 to 5000 nM
12,CCc1c(NC(=O)OC[C@@H]2COCCN2)cn2ncnc(Nc3ccc4c(cnn4Cc4cnccn4)c3)c12,1 to 5000 nM
13,Cc1c(NC(=O)O[C@H]2CC[C@@H](N)CC2)cn2ncnc(Nc3ccc4c(cnn4Cc4cccc(F)c4)c3)c12,1 to 5000 nM
14,CCc1c(NC(=O)OC[C@@H]2CNCCO2)cn2ncnc(Nc3ccc4c(cnn4Cc4ccccc4)c3)c12,1 to 5000 nM
15,CCc1c(NC(=O)O[C@H]2CC[C@@H](CN)CC2)cn2ncnc(Nc3ccc4c(cnn4Cc4ccccc4)c3)c12,1 to 5000 nM
16,Cc1c(NC(=O)OC[C@H]2COCCN2)cn2ncnc(Nc3ccc4c(cnn4Cc4cccc(F)c4)c3)c12,1 to 5000 nM
17,Cc1c(NC(=O)OC[C@@H](C)N)cn2ncnc(Nc3ccc4c(cnn4Cc4cccc(F)c4)c3)c12,1 to 5000 nM
18,CCc1c(NC(=O)OC[C@H]2COCCN2)cn2ncnc(Nc3ccc4c(cnn4Cc4ccccc4)c3)c12,1 to 5000 nM
19,CCc1c(NC(=O)OC[C@@H]2COCCN2)cn2ncnc(Nc3ccc4c(cnn4Cc4ccsc4)c3)c12,1 to 5000 nM
20,CCc1c(NC(=O)OC[C@@H]2CCNC2)cn2ncnc(Nc3ccc4c(cnn4Cc4ccccc4)c3)c12,1 to 5000 nM
21,Cc1c(NC(=O)O[C@@H]2CCCNC2)cn2ncnc(Nc3ccc4c(cnn4Cc4cccc(F)c4)c3)c12,1 to 5000 nM
22,Cc1c(NC(=O)O[C@H]2CC[C@H](N)CC2)cn2ncnc(Nc3ccc4c(cnn4Cc4cccc(F)c4)c3)c12,1 to 5000 nM
23,Cc1c(NC(=O)O[C@H]2CCCNC2)cn2ncnc(Nc3ccc4c(cnn4Cc4cccc(F)c4)c3)c12,1 to 5000 nM

row,SMILES,IC50
1,CCc1c(NC(=O)OC[C@@H]2COCCN2)cn2ncnc(Nc3ccc4c(cnn4Cc4ncco4)c3)c12,1 to 5000 nM
2,CCc1c(NC(=O)OC[C@@H]2COCCN2)cn2ncnc(Nc3ccc4c(cnn4Cc4cccs4)c3)c12,1 to 5000 nM
3,CCc1c(NC(=O)OC[C@@H]2COCCN2)cn2ncnc(Nc3ccc4c(cnn4Cc4cccc(F)c4)c3)c12,1 to 5000 nM
4,CCc1c(NC(=O)OCCCN2CC[C@H](O)C2)cn2ncnc(Nc3ccc4c(cnn4Cc4ccccc4)c3)c12,1 to 5000 nM
5,CCc1c(NC(=O)OC[C@H]2CCCN2)cn2ncnc(Nc3ccc4c(cnn4Cc4ccccc4)c3)c12,1 to 5000 nM
6,CCc1c(NC(=O)OC[C@@H]2CCN(C)C2)cn2ncnc(Nc3ccc4c(cnn4Cc4ccccc4)c3)c12,1 to 5000 nM
7,Cc1c(NC(=O)O[C@H]2CCN[C@H](CO)C2)cn2ncnc(Nc3ccc4c(cnn4Cc4cccc(F)c4)c3)c12,1 to 5000 nM
8,CCc1c(NC(=O)OC[C@@H]2COCCN2)cn2ncnc(Nc3ccc4c(cnn4Cc4nccs4)c3)c12,1 to 5000 nM
9,Cc1c(NC(=O)OCC2COCCN2)cn2ncnc(Nc3ccc4c(cnn4Cc4cccc(F)c4)c3)c12 (stereo not given),1 to 5000 nM
10,Cc1c(NC(=O)OC[C@@H]2COCCN2C(=O)OC(C)(C)C)cn2ncnc(Nc3ccc4c(cnn4Cc4cccc(F)c4)c3)c12,1 to 5000 nM
11,Cc1c(NC(=O)O[C@H]2CC[C@@](C)(N)CC2)cn2ncnc(Nc3ccc4c(cnn4Cc4cccc(F)c4)c3)c12,1 to 5000 nM
12,CCc1c(NC(=O)OC[C@@H]2COCCN2)cn2ncnc(Nc3ccc4c(cnn4Cc4cscn4)c3)c12,1 to 5000 nM
13,CCc1c(NC(=O)OC[C@@H]2COCCN2)cn2ncnc(Nc3ccc4c(cnn4Cc4ccccc4)c3)c12,1 to 5000 nM
14,CCc1c(NC(=O)O[C@H]2CCCNC2)cn2ncnc(Nc3ccc4c(cnn4Cc4ccccc4)c3)c12,1 to 5000 nM
15,CCc1c(NC(=O)OC[C@@H]2COCCN2)cn2ncnc(Nc3ccc4c(cnn4Cc4ccccn4)c3)c12,1 to 5000 nM
16,CCc1c(NC(=O)OC[C@H]2CNCCO2)cn2ncnc(Nc3ccc4c(cnn4Cc4ccccc4)c3)c12,1 to 5000 nM
17,CCc1c(NC(=O)O[C@@H]2CCN[C@@H](CO)C2)cn2ncnc(Nc3ccc4c(cnn4Cc4ccccc4)c3)c12,1 to 5000 nM
18,CCc1c(NC(=O)OCCCN2CC[C@@H](O)C2)cn2ncnc(Nc3ccc4c(cnn4Cc4ccccc4)c3)c12,1 to 5000 nM
19,CCc1c(NC(=O)O[C@H]2CC[C@H](N)CC2)cn2ncnc(Nc3ccc4c(cnn4Cc4ccccc4)c3)c12,1 to 5000 nM
20,CCc1c(NC(=O)OC2CCN[C@H](CO)C2)cn2ncnc(Nc3ccc4c(cnn4Cc4ccccc4)c3)c12 (stereo not given in full),1 to 5000 nM
21,CCc1c(NC(=O)O[C@H]2CC[C@@](C)(N)CC2)cn2ncnc(Nc3ccc4c(cnn4Cc4ccccc4)c3)c12,1 to 5000 nM
22,CCc1c(NC(=O)O[C@H]2CC[C@@H](N)CC2)cn2ncnc(Nc3ccc4c(cnn4Cc4ccccc4)c3)c12,1 to 5000 nM
